Source: PubChem BioAssay AID248 (DTP/NCI, 2004)
Where “and” joins values, the source holds several entries; their conditions need not be identical. Equal entries are not always repeated. Toxic doses and inconclusive results are not listed. Cut-off read from the data, not from the text of the source: active = T/C of 150% or more; inactive = T/C below 125%.

Test system: L1210 leukemia ip in BDF1 mice, survival T/C
Assay: NCI In Vivo Anticancer Drug Screen. Data for tumor model L1210 Leukemia (intraperitoneal) in B6D2F1 (BDF1) mice
Conditions: endpoint: mean survival time, higher = longer survival
Method in brief: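 Read-out is survival time, reported as the treated-group measurement over the vehicle-control measurement.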

[1] = dose: 50.0 mg/kg/injection, schedule: Q01DX009 (ip), vehicle: Klucel (hydroxypropylcellulose) (HPC)
[2] = dose: 100.0 mg/kg/injection, schedule: Q01DX009 (ip), vehicle: Klucel (hydroxypropylcellulose) (HPC)
[3] = dose: 100.0 mg/kg/injection, schedule: Q04DX003 (ip), vehicle: Klucel (hydroxypropylcellulose) (HPC)
[4] = dose: 200.0 mg/kg/injection, schedule: Q01DX009 (ip), vehicle: Klucel (hydroxypropylcellulose) (HPC)
[5] = dose: 200.0 mg/kg/injection, schedule: Q04DX003 (ip), vehicle: Klucel (hydroxypropylcellulose) (HPC)
[6] = dose: 100.0 mg/kg/injection, schedule: Q01DX009 (ip), vehicle: gum acacia
[7] = dose: 200.0 mg/kg/injection, schedule: Q01DX009 (ip), vehicle: gum acacia
[8] = dose: 400.0 mg/kg/injection, schedule: Q01DX009 (ip), vehicle: gum acacia
[9] = dose: 100.0 mg/kg/injection, schedule: Q01DX009 (ip), vehicle: saline with Tween-80
[10] = dose: 200.0 mg/kg/injection, schedule: Q01DX009 (ip), vehicle: saline with Tween-80
[11] = dose: 400.0 mg/kg/injection, schedule: Q01DX009 (ip), vehicle: saline with Tween-80
[12] = dose: 100.0 mg/kg/injection, schedule: Q01DX009 (ip), vehicle: saline
[13] = dose: 200.0 mg/kg/injection, schedule: Q01DX009 (ip), vehicle: saline
[14] = dose: 400.0 mg/kg/injection, schedule: Q04DX003 (ip), vehicle: Klucel (hydroxypropylcellulose) (HPC)

Measured: T/C

CCCCCCCCCCCCCCCCC/C=N\N=C(N)N
inactive: dose: 15.0 mg/kg/injection, schedule: Q01DX Z (ip), vehicle: carboxymethylcellulose (CMC) 101 % of control | dose: 30.0 mg/kg/injection, schedule: Q01DX Z (ip), vehicle: carboxymethylcellulose (CMC) 96 % of control | dose: 60.0 mg/kg/injection, schedule: Q01DX Z (ip), vehicle: carboxymethylcellulose (CMC) 90 % of control | dose: 60.0 mg/kg/injection, schedule: Q01DX Z (oral), vehicle: carboxymethylcellulose (CMC) 106 % of control | dose: 120.0 mg/kg/injection, schedule: Q01DX Z (ip), vehicle: carboxymethylcellulose (CMC) 104 % of control | dose: 120.0 mg/kg/injection, schedule: Q01DX Z (oral), vehicle: carboxymethylcellulose (CMC) 110 % of control | dose: 240.0 mg/kg/injection, schedule: Q01DX Z (oral), vehicle: carboxymethylcellulose (CMC) 118 % of control | dose: 480.0 mg/kg/injection, schedule: Q01DX Z (oral), vehicle: carboxymethylcellulose (CMC) 118 % of control

c1ccc(CNCc2ccccc2)cc1
inactive: [1] 93 % of control | [2] 93 % of control | [3] 95 % of control | [4] 100 % of control | [5] 95 % of control

N#CCc1ccccc1C(=O)O
inactive: [6] 105 % of control | dose: 100.0 mg/kg/injection, schedule: Q04DX003 (ip), vehicle: gum acacia 96 % of control | [7] 94 % of control | dose: 200.0 mg/kg/injection, schedule: Q04DX003 (ip), vehicle: gum acacia 91 % of control | [8] 88 % of control | dose: 400.0 mg/kg/injection, schedule: Q04DX003 (ip), vehicle: gum acacia 97 % of control

Cc1ccc(NC(=O)Nc2cccc(C(F)(F)F)c2)cc1Cl
inactive: [6] 92 % of control | [7] 89 % of control | [8] 91 % of control

COC(=O)CCC(=O)N1CCOCC1
inactive: dose: 100.0 mg/kg/injection, schedule: Q04DX003 (ip), vehicle: saline with Tween-80 88 % of control | dose: 200.0 mg/kg/injection, schedule: Q04DX003 (ip), vehicle: saline with Tween-80 90 % of control | dose: 400.0 mg/kg/injection, schedule: Q04DX003 (ip), vehicle: saline with Tween-80 88 % of control

CCC(N)CO (stereo unspecified)
inactive: dose: 100.0 mg/kg/injection, schedule: Q01DX001 (ip), vehicle: saline 97 % of control | dose: 200.0 mg/kg/injection, schedule: Q01DX001 (ip), vehicle: saline 106 % of control

O=C(O)c1ccccc1CCl
inactive: [9] 101 % of control | [10] 108 % of control | [11] 95 % of control

CC(O)c1ccc[n+]([O-])c1 (stereo unspecified)
inactive: [12] 93 % of control | [13] 96 % of control | dose: 400.0 mg/kg/injection, schedule: Q01DX009 (ip), vehicle: saline 96 % of control

C#CCCCCCC#CCCCCCC#CCCCCCC#C
inactive: dose: 100.0 mg/kg/injection, schedule: Q04DX003 (ip), vehicle: acetone 94 % of control | dose: 200.0 mg/kg/injection, schedule: Q04DX003 (ip), vehicle: acetone 95 % of control

C=CCNC(=O)C(Br)(CC)CC
inactive: [12] 92 % of control | dose: 100.0 mg/kg/injection, schedule: Q04DX003 (ip), vehicle: saline 96 % of control | [13] 92 % of control | dose: 200.0 mg/kg/injection, schedule: Q04DX003 (ip), vehicle: saline 96 % of control

OC1C2CCC(CC2)C1O (stereo unspecified)
inactive: dose: 4.5 mg/kg/injection, schedule: Q01DX009 (ip), vehicle: saline with Tween-80 92 % of control | dose: 4.5 mg/kg/injection, schedule: Q04DX003 (ip), vehicle: other 108 % of control | dose: 9.0 mg/kg/injection, schedule: Q01DX009 (ip), vehicle: saline with Tween-80 92 % of control | dose: 9.0 mg/kg/injection, schedule: Q04DX003 (ip), vehicle: other 101 % of control | dose: 9.75 mg/kg/injection, schedule: Q01DX001 (ip), vehicle: other 104 % of control | dose: 18.0 mg/kg/injection, schedule: Q01DX009 (ip), vehicle: saline with Tween-80 86 % of control | dose: 18.0 mg/kg/injection, schedule: Q04DX003 (ip), vehicle: other 106 % of control | dose: 18.5 mg/kg/injection, schedule: Q01DX001 (ip), vehicle: other 107 % of control

O=S1(=O)CCCC1C(Cl)c1ccccc1 (stereo unspecified)
inactive: dose: 50.0 mg/kg/injection, schedule: Q01DX001 (ip), vehicle: Klucel (hydroxypropylcellulose) (HPC) 92 % of control | dose: 100.0 mg/kg/injection, schedule: Q01DX001 (ip), vehicle: Klucel (hydroxypropylcellulose) (HPC) 97 % of control

O=C1OC(c2cccc(Cl)c2)=N/C1=C\c1ccccc1
inactive: dose: 100.0 mg/kg/injection, schedule: Q04DX002 (ip), vehicle: Klucel (hydroxypropylcellulose) (HPC) 98 % of control | dose: 400.0 mg/kg/injection, schedule: Q04DX002 (ip), vehicle: Klucel (hydroxypropylcellulose) (HPC) 104 % of control

CC(=O)OC(c1ccccc1)C(Cl)(Cl)Cl (stereo unspecified)
inactive: [9] 93 % of control | [10] 104 % of control | [11] 97 % of control

CNC(=S)c1ccc(Cl)cc1
inactive: dose: 12.5 mg/kg/injection, schedule: Q01DX009 (ip), vehicle: Klucel (hydroxypropylcellulose) (HPC) 96 % of control | dose: 25.0 mg/kg/injection, schedule: Q01DX009 (ip), vehicle: Klucel (hydroxypropylcellulose) (HPC) 94 % of control

CCNC(=O)c1cc(NCC)nc(Cl)n1
inactive: [3] 97 % of control | [5] 94 % of control | [14] 101 % of control

NC(CCl)=NCCOC12CC3CC(CC(C3)C1)C2
inactive: dose: 25.0 mg/kg/injection, schedule: Q04DX002 (ip), vehicle: saline 94 % of control | dose: 50.0 mg/kg/injection, schedule: Q04DX002 (ip), vehicle: saline 112 % of control | dose: 100.0 mg/kg/injection, schedule: Q04DX002 (ip), vehicle: saline 96 % of control and 87 % of control

Cc1ncc(CS(=O)(=O)O)c(N)n1
inactive: [2] 92 % of control | [3] 97 % of control | [4] 100 % of control | [5] 98 % of control | dose: 400.0 mg/kg/injection, schedule: Q01DX009 (ip), vehicle: Klucel (hydroxypropylcellulose) (HPC) 98 % of control | [14] 97 % of control

NP(=O)(CCl)NC12CC3CC(CC(C3)C1)C2 (stereo unspecified)
inactive: [1] 86 % of control | [2] 95 % of control | [4] 93 % of control
